Data reported in BindingDB's records for doi:10.1021/cb400200h (University of Oxford, 2013).

Biological target: Peptidoglycan D,D-transpeptidase FtsI (Pseudomonas aeruginosa (strain PA7), UniProt A6VB91)
Assay: IC50 Assay
Conditions: pH 7.2; 25 °C
Protocol: An appropriate amount of enzyme (4uM) was pre-incubated with the (5R)- or 5(S)-penicilloic acid in the assay buffer (50mM HEPES-NaOH buffer (pH 7.2) supplemented with 0.01% Triton-100) at room temperature for 10 min. Nitrocefin (100uM) was added to initiate the assay. The IC50 values were determined using the software package Graph Prism 5.01.

Chain of Peptidoglycan D,D-transpeptidase FtsI (A6VB91 whole entry): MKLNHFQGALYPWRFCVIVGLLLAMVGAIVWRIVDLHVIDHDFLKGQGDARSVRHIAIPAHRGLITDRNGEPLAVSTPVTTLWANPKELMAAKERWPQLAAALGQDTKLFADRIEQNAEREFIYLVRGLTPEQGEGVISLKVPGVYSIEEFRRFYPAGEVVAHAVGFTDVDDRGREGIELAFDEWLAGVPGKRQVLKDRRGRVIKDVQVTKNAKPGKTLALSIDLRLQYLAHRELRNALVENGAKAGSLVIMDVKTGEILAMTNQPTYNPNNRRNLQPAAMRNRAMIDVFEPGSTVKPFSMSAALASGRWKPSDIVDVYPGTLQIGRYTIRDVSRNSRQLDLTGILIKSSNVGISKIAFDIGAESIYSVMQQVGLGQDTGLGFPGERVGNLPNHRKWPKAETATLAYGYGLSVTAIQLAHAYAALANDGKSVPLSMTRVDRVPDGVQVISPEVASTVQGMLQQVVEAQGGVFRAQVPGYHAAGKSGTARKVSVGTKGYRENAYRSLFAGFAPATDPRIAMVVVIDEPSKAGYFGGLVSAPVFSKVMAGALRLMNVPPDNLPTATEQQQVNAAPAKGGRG

Compound | IC50
CCN1CCN(C(=O)N[C@@H](C(=O)N[C@@H]2C(=O)N3[C@@H]2SC(C)(C)[C@@H]3C(=O)O)c2ccccc2)C(=O)C1=O | 0.166 µM
CCN1CCN(C(=O)N[C@@H](C(=O)N[C@H](C(=O)O)[C@@H]2N[C@@H](C(=O)O)C(C)(C)S2)C2C=CC=CC2)C(=O)C1=O (stereo partly drawn) [(5R)-PA] | 196 µM
CCN1CCN(C(=O)N[C@@H](C(=O)N[C@H](C(=O)O)[C@H]2N[C@@H](C(=O)O)C(C)(C)S2)C2C=CC=CC2)C(=O)C1=O (stereo partly drawn) [(5S)-PA] | 126 µM
